Experimental data taken from patent US11466025B2, “Thienopyridine derivatives containing unsaturated aliphatic olefinic bond, preparation method and use thereof” (Tianjin Institute of Pharmaceutical Research Co., Ltd., priority 2017, dated 2022).
Read-outs that look alike come from different tables or passages of the source.

Experiments:
[1] = system: platelet aggregation induced by ADP; test: Test of inhibitory effect of compounds on platelet aggregation in rats (ex vivo, ADP-induced, after intragastric administration); design: species or system SD rats; settings: rats; for Inhibition rate (%): platelet aggregation, control = 100%; for Aggregation rate (%): 2 h after administration, ADP 20 uM
Protocol: Test of Inhibitory Effect of Compounds on Platelet Aggregation in Rats Healthy male SD rats were selected and randomly divided into solvent control group, positive drug control group and test compound group. Intragastric administration was carried out, with the administration volume being 10 ml/kg˜bw. […] The platelet count was adjusted to 5×10^8 cells/ml with PPP.

[2] = 1 μM
Protocol: Plasma samples (double sample) containing 1 μM of the compounds of the present invention, clopidogrel hydrogen sulfate (LBGL), 2-oxo product (2-Oxo) were prepared from human blank plasma, and incubated at 37° C. 50 μL of the above incubated plasma samples were taken at different time points, and 100 μL of precipitant (acetonitrile:methanol=7:3) and 50 μL of internal standard were added. The mixture was vortexed for 1 min and centrifuged for 10 min. 100 μL of the supernatant was taken into an inner inserted tube, centrifuged for 5 min, and injected for LC-MS/MS analysis.
Preparation of blank control sample (PPT-0): 100 μL of frozen human blank plasma was taken, to which 195 μL of acetonitrile and 100 μL of internal standard were added, followed by 5 μL of the compound of the present invention, clopidogrel or 2-oxo product (20 μM). The mixture was vortexed for 1 min and centrifuged for 10 min. 100 μL of the supernatant was taken into an inner inserted tube, centrifuged for 5 min, and injected for LC-MS/MS analysis.

beagle dogs = test: Safety evaluation in single dosing; type: in vivo; settings: intragastric single dose of 2 g/kg
Protocol: Safety Evaluation of Compounds I-1 and I-2 in Single Dosing: The test consisted of a physiological control group, a solvent control group, and two administration groups, with 4 animals in each group, half of which were male and the other half of which were female. The animals were intragastrically administered with the test compounds at a single dose of 2 g/kg. The solvent control group was administered with an equal volume of the blank solvent. Animals were daily observed for various conditions during the test. ECG examinations were performed before administration, 1 h after administration, and 7 and 14 days after administration. Hematological and blood biochemical tests were performed before administration and 1, 7 and 12 days after administration.

[3] = Stability of the compounds under high temperature, high humidity and light (influence factors, HPLC); type: physicochemical
Protocol: Study on the Stability of the Compounds:
The stability of the compound is investigated under the conditions of high temperature, high humidity and light. The testing conditions for high performance liquid chromatography (HPLC) are as follows:
Instrument: high performance liquid chromatography;
Column: Inertsil C8-3, 150 mm×4.6 mm, 5 μm;
Mobile phase A: acetonitrile; mobile phase B: 5 mM ammonium dihydrogen phosphate;
Detection wavelength: 220 nm;
Column temperature: 35° C.;
Sample chamber temperature: 25° C.;
Column: Agilent Poroshell 120 EC-C18, 100 mm×4.6 mm, 2.7 μm;
Column temperature: 30° C.;
Other conditions are the same as that in Method 1.
Samples relating to Compound I-2 were tested using Method 2 and other samples were tested using Method 1. The test results of the influence factors are shown in Table 14, and the test results of the light-avoidance stability test are shown in Table 15.

[4] = 5 days, High temperature 60° C.
[5] = 10 days, High temperature 60° C.
[6] = 30 days, High temperature 60° C.

SMILES: C/C=C/C=C/C(=O)Oc1cc2c(s1)CCN([C@H](C(=O)OC)c1ccccc1Cl)C2 [Compound I-2, Methyl (S)-2-(2-chlorophenyl)-2-(2-((2E,4E)-2,4-hexadienoyloxy)-6,7-dihydrothieno[3,2-c]pyridin-5(4H)-yl)-acetate]
- ED50 ([1]; Rattus norvegicus, inhibition of ADP-induced platelet aggregation, oral administration, read-out: ED50): 1.58 mg/kg
- Inhibition rate (%) ([1]; intragastric 0.75 mg/kg): 7.0%
- Inhibition rate (%) ([1]; intragastric 1.5 mg/kg): 50.8%
- Inhibition rate (%) ([1]; intragastric 3 mg/kg): 85.8%
- Aggregation rate (%) ([1]; intragastric 0.75 mg/kg): 55.8 ± 13.9%
- Aggregation rate (%) ([1]; intragastric 1.5 mg/kg): 29.6 ± 8.7 %
- Aggregation rate (%) ([1]; intragastric 3 mg/kg): 8.5 ± 9.4 %
- 2-Oxo metabolite concentration in human plasma ([2]; 0 min): 0.0192 µM
- 2-Oxo metabolite in human plasma, % ([2]; 0 min): 1.74%
- Concentration of incubated compound in human plasma ([2]; 0 min): 1.11 µM
- Incubated compound in human plasma, % ([2]; 0 min): 100%
- Generation of 2-oxo (2-Oxo) product in human plasma [2]: rapidly generate 2-oxo products
- 2-Oxo metabolite concentration in human plasma ([2]; 5 min): 0.0246 µM
- 2-Oxo metabolite in human plasma, % ([2]; 5 min): 2.23%
- Concentration of incubated compound in human plasma ([2]; 5 min): 1.03 µM
- Incubated compound in human plasma, % ([2]; 5 min): 93.5%
- 2-Oxo metabolite concentration in human plasma ([2]; 10 min): 0.0319 µM
- 2-Oxo metabolite in human plasma, % ([2]; 10 min): 2.89%
- Concentration of incubated compound in human plasma ([2]; 10 min): 1.03 µM
- Incubated compound in human plasma, % ([2]; 10 min): 92.8%
- 2-Oxo metabolite concentration in human plasma ([2]; 20 min): 0.0449 µM
- 2-Oxo metabolite in human plasma, % ([2]; 20 min): 4.06%
- Concentration of incubated compound in human plasma ([2]; 20 min): 1.07 µM
- Incubated compound in human plasma, % ([2]; 20 min): 97.1%
- 2-Oxo metabolite concentration in human plasma ([2]; 30 min): 0.0493 µM
- 2-Oxo metabolite in human plasma, % ([2]; 30 min): 4.46%
- Concentration of incubated compound in human plasma ([2]; 30 min): 0.957 µM
- Incubated compound in human plasma, % ([2]; 30 min): 86.6%
- 2-Oxo metabolite concentration in human plasma ([2]; 45 min): 0.0522 µM
- 2-Oxo metabolite in human plasma, % ([2]; 45 min): 4.72%
- Concentration of incubated compound in human plasma ([2]; 45 min): 0.927 µM
- Incubated compound in human plasma, % ([2]; 45 min): 83.9%
- 2-Oxo metabolite concentration in human plasma ([2]; 60 min): 0.0521 µM
- 2-Oxo metabolite in human plasma, % ([2]; 60 min): 4.71%
- Concentration of incubated compound in human plasma ([2]; 60 min): 0.849 µM
- Incubated compound in human plasma, % ([2]; 60 min): 76.8%
- 2-Oxo metabolite concentration in human plasma ([2]; 90 min): 0.0481 µM
- 2-Oxo metabolite in human plasma, % ([2]; 90 min): 4.35%
- Concentration of incubated compound in human plasma ([2]; 90 min): 0.705 µM
- Incubated compound in human plasma, % ([2]; 90 min): 63.8%
- 2-Oxo metabolite concentration in human plasma ([2]; 120 min): 0.0457 µM
- 2-Oxo metabolite in human plasma, % ([2]; 120 min): 4.14%
- Concentration of incubated compound in human plasma ([2]; 120 min): 0.695 µM
- Incubated compound in human plasma, % ([2]; 120 min): 62.9%
- 2-Oxo metabolite concentration in human plasma ([2]; 150 min): 0.0445 µM
- 2-Oxo metabolite in human plasma, % ([2]; 150 min): 4.03%
- Concentration of incubated compound in human plasma ([2]; 150 min): 0.516 µM
- Incubated compound in human plasma, % ([2]; 150 min): 46.7%
- 2-Oxo metabolite concentration in human plasma ([2]; 180 min): 0.0388 µM
- 2-Oxo metabolite in human plasma, % ([2]; 180 min): 3.51%
- Concentration of incubated compound in human plasma ([2]; 180 min): 0.475 µM
- Incubated compound in human plasma, % ([2]; 180 min): 43.0%
- 2-Oxo metabolite concentration in human plasma ([2]; 240 min): 0.0331 µM
- 2-Oxo metabolite in human plasma, % ([2]; 240 min): 3.00%
- Concentration of incubated compound in human plasma ([2]; 240 min): 0.332 µM
- Incubated compound in human plasma, % ([2]; 240 min): 30.0%
- 2-Oxo metabolite concentration in human plasma ([2]; 300 min): 0.0294 µM
- 2-Oxo metabolite in human plasma, % ([2]; 300 min): 2.66%
- Concentration of incubated compound in human plasma ([2]; 300 min): 0.231 µM
- Incubated compound in human plasma, % ([2]; 300 min): 20.9%
- 2-Oxo metabolite concentration in human plasma ([2]; 360 min): 0.0236 µM
- 2-Oxo metabolite in human plasma, % ([2]; 360 min): 2.14%
- Concentration of incubated compound in human plasma ([2]; 360 min): 0.164 µM
- Incubated compound in human plasma, % ([2]; 360 min): 14.8%
- ECG examinations, hematological tests and serum biochemical tests (beagle dogs): no obvious abnormalities
- Activities, mental condition and diet (beagle dogs; administration and observation period): normal activities, good mental condition, and normal diet
- Chromatographic purity % ([3]; 0 day, 0point): 98.879%
- Isomer % ([3]; 0 day, 0point): 0.705%
- Chromatographic purity % ([3]; 5 days, High humidity RH92.5%): 98.897%
- Isomer % ([3]; 5 days, High humidity RH92.5%): 0.707%
- Chromatographic purity % [3, 4]: 98.840%
- Isomer % [3, 4]: 0.696%
- Chromatographic purity % ([3]; 5 days, Light 4500 ± 500 LX): 98.853%
- Isomer % ([3]; 5 days, Light 4500 ± 500 LX): 0.699%
- Chromatographic purity % ([3]; 10 days, High humidity RH92.5%): 98.882%
- Isomer % ([3]; 10 days, High humidity RH92.5%): 0.708%
- Chromatographic purity % [3, 5]: 98.930%
- Isomer % [3, 5]: 0.692%
- Chromatographic purity % ([3]; 10 days, Light 4500 ± 500 LX): 98.756%
- Isomer % ([3]; 10 days, Light 4500 ± 500 LX): 0.712%
- Chromatographic purity % ([3]; 30 days, High humidity RH92.5%): 98.885%
- Isomer % ([3]; 30 days, High humidity RH92.5%): 0.704%
- Chromatographic purity % [3, 6]: 98.936%
- Isomer % [3, 6]: 0.683%
- Chromatographic purity % ([3]; 30 days, Light 4500 ± 500 LX): 95.099%
- Isomer % ([3]; 30 days, Light 4500 ± 500 LX): 0.695%
